“Also recorded” adds a separate entry of the source. Peptide text beside a SMILES is read from it. * marks the point of attachment. Cbz = O=C(OCc1ccccc1)*
Assays:
[1] = system: DISC macro-complex (Fas/FADD/Caspase-8); assay: DISC formation: Fas immunoprecipitation and Western blot; assay type: cell-based, human; conditions: for recruitment of FADD and DISC formation: non-permeant chelators lowering extracellular calcium
Protocol: Cells were incubated with 1 μg/ml APO1-3 for 30 minutes at 4° C. After washing, cells were incubated for 15 minutes at 4° C. (0 minutes) or at 37° C. (15 minutes) and then lysed for 30 minutes at 4° C. in a lysis buffer (25 mM HEPES pH 7.4, 1% Triton X-100, 150 mM NaCl, 2 mM EDTA, a cocktail including protease inhibitors (Sigma)). The lysed cells were then centrifugated for 15 minutes at 15000 rpm in order to eliminate genomic DNA, and the supernatant was kept. The sepharose beads which were coupled with protein A were added to the lysate and the mixture was incubated for 2 hours. The beads were recovered, washed intensively and the immunoprecipitated proteins were re-suspended in a denaturing and reducing buffer (0.01M Tris-HCl pH6.8, 10% glycerol (v/v), 85 mM sodium dodecyl sulfate (SDS), 5% (v/v) […] and 0.005% (w/v) bromophenol blue) then heated at 100° C. for 5 minutes. The samples were deposited in an acrylamide/Bisacrylamide gel and separated by electrophoresis. The proteins were transferred from the gel into a nitrocellulose membrane using a semi-dry medium transfer technique for 2 hours at constant amperage (0.8 mA/cm^2). […] After transfer, the nitrocellulose membrane was saturated with proteins for 30 minutes with a TBST buffer (50 mM Tris pH=8, 0.15M sodium chloride, 0.05% (v/v) Tween-20) containing 5% (w/v) skimmed powdered milk (TBSTM). After washing with TBST, the membrane was incubated for 2 hours with the primary antibody in TBST. The membrane was washed intensively then incubated for one hour with TBST containing the secondary peroxidase-coupled antibody. […] This solution contained a substrate metabolised by peroxidase to yield a luminescent compound, which allowed marking a radiographic film (Amersham).

[2] = system: T and B leukemia/lymphoma cell lines and activated PBLs treated with FasL; assay: Fas/CD95-mediated cell death (MTT test); assay type: cell-based, human; conditions: for sensitivity to the CD95-mediated apoptotic signal (% cell death): down-modulation of extracellular calcium, T and B-cell lines, vs untreated
Protocol: 2 to 4.10^4 cells were deposited in wells in a 96-well plate. The cells were incubated, in the presence of the different reactants for the times specified, at 37° C. in a final volume of 100 or 200 μl.
The MTT test enabled to measure the activity of a mitochondrial enzyme, the dehydrogenase succinate which transforms MTT (or 3-(4,5-dimethylthiazol-2-yl)-2,5-diphenyltetrazolium) bromide originally yellow in colour and soluble, into blue formazan crystals, insoluble in aqueous phase. Upon completion of the different treatments, the living cells were quantified by adding in each well 15 μl PBS (Phosphate Buffered Saline) containing 5 mg/ml MTT. […] Spectrophotometric reading of absorbance was done at 570 nm. The measurement of the optical density is directly proportional to the number of living cells and the percentage of cell death was calculated with the following formula: 100-[(DO treated cells/DO non-treated cells)*100].

[3] = system: Raji, BL2, Jurkat cell lines and activated PBL; assay: Apoptosis % by loss of mitochondrial membrane potential; assay type: cell-based, human; conditions: for induction of cell death via DR4/DR5 with calcium chelation: BL2 cell line, 24 h, prior incubation 15 minutes BAPTA-AM 1 μM
Protocol: 2 to 4.10^4 cells were deposited in wells in a 96-well plate. The cells were incubated, in the presence of the different reactants for the times specified, at 37° C. in a final volume of 100 or 200 μl. The apoptotic cells were identified in the cellular populations by measuring mitochondrial de-polarisation. […] These potentiometric probes allowed monitoring the variations of the mitochondrial membrane potential. […] Following cell treatment with the different drugs, the former were placed in the presence of TMRM or DIOC6 at 10 nM concentration, for 20 minutes at 37° C. then the fluorescence of the cells was analysed by flow cytometry.

Raji cells = assay: Raji B lymphoma tumour growth in Rag2-/-γ-/- mice; assay type: in vivo; conditions: Raji s.c.; single agent; Rituximab 2 mg/kg, Zoledronate 4 mg/kg
Protocol: The implantation of the tumours was done subcutaneously in Rag2−/−γ−/− mice flank aged from 5 to 7 weeks. Following implantation of the tumours, the mice were divided in groups of 8 to 10 animals for each treatment. The size of the tumour was assessed every day by measuring its width (w) and its length (I). Its volume was calculated according to the formula: V=lw^2/2. At the end of the experiment, the animals were sacrified, the tumour weight was measured.
From 10^6 Raji cells were implanted subcutaneously in mice flank. The effects of Rituximab alone, of Zoledronate alone, are assessed on the growth of tumours. Rituximab (2 mg/kg) was delivered 3 times a week, Zoledronate was delivered 1 time a week.

[4] = system: intracellular calcium concentration; assay: Intracellular Ca2+ concentration, indo-1 (micro)spectrofluorimetry; assay type: cell-based, human
Protocol: Principle: [Ca^2+]i was measured by microspectrofluorimetry using a calcium sensitive fluorescent probe: indo-1. When excited at 360 nm wavelength, the so-called monoexcitation/double emission indo-1 probe transmitted back in a spectrum ranging from 400 to 500 nm. Binding of Ca^2+ to indo-1 caused displacement of the emission spectrum after excitation. The emission maximum in the unbound form was located around 480 nm. The emission of the complexed form was around 405 nm. An increase of calcium concentration thus caused the emission to increase to 405 nm and the emission to decrease to 480 nm. The ratio of both fluorescence intensities allowed to be independent from the quantity of the probe and to determine the [Ca^2+]i according to the Grynkiewicz equation:
[Ca^2+]i(nM)=Kd.β×(R−Rmin)/(Rmax−R)
Rmax, Rmin and Kd. β were determined by combining electrophysiology (patch clamp) and spectrofluorimetry. Rmax was determined by placing in the patch pipette a medium containing 10 mM CaCl2. Rmin was obtained by placing as an intrapipette solution a calcium-deprived medium (10 mM EGTA).
The cells were then rinsed with HBSS (800 rpm centrifugation for 2 minutes) and placed in an observation chamber on a glass coverslip. […] The excitation light is supplied by a Xenon lamp (100W). […] The substances to be tested were applied using a glass pipette positioned at some twenty μm of the studied cell and connected to a pneumatic system.
The principle as well as the loading of the cells were identical with the measurement on single cells. In such a case, approx. 40,000 cells were placed in a quartz tub under constant agitation. The tub was then placed in a Hitachi spectrofluorimeter whereof the excitation monochromator was set to 350 nm. […] The signals were transmitted to a computer via an analogue/digital converter. So as to be able to apply the Grynkiewicz equation (see above) and translate the fluorescence ratios measured in calcium values, the calibration parameters were entered into the software. The substances to be tested were applied directly in the tube under constant agitation.

O=C(O)CN(CCOCCOCCN(CC(=O)O)CC(=O)O)CC(=O)O [EGTA, glycol-bis(2-aminoethylether)-N,N,N′,N′-tetraacetic acid]
recruitment of FADD and DISC formation ([1]; H9 cells, CD95 stimulation): enhanced the recruitment of FADD and the DISC formation; also recorded: enhanced recruitment of FADD as well as enhanced DISC formation
sensitivity to the CD95-mediated apoptotic signal (% cell death) [2]: increased the sensitivity of T and B-cell lines to the CD95-mediated apoptotic signal

Oc1ccc(C=Cc2cc(O)cc(O)c2)cc1 [resveratrol]
induction of cell death via DR4/DR5 with calcium chelation [3]: potentiated by calcium chelation

CNCCC(Oc1ccc(C(F)(F)F)cc1)c1ccccc1 (stereo not shown) [fluoxetine]
induction of cell death via DR4/DR5 with calcium chelation [3]: potentiated by calcium chelation

Rituximab: anti-CD20 monoclonal antibody
death signalling and apoptosis induced by Rituximab in low calcium medium ([3]; Raji, defined medium 0.5 mM vs 4 mM calcium): allowed potentiating the death signalling and apoptosis
cell death signal induced by Rituximab with added extracellular calcium ([3]; Raji, medium 3 mM vs 0.8 mM calcium): inhibited the cell death signal
tumour mass vs vehicle (Raji cells): not significantly affected

CC(C)C[C@@H](C=O)NC(=O)[C@H](CC(C)C)NC(=O)[C@H](CC(C)C)NC(=O)OCc1ccccc1 [MG132] (Cbz-Leu-Leu-Leu-aldehyde)
induction of cell death via DR4/DR5 with calcium chelation [3]: potentiated by calcium chelation

O=C(O)CN(CC(=O)O)c1ccccc1OCCOc1ccccc1N(CC(=O)O)CC(=O)O [BAPTA, 1,2-bis(o-aminophenoxy)ethane-N,N,N′,N′-tetraacetic acid]
recruitment of FADD and DISC formation ([1]; H9 cells, CD95 stimulation): enhanced the recruitment of FADD and the DISC formation; also recorded: enhanced recruitment of FADD as well as enhanced DISC formation
sensitivity to the CD95-mediated apoptotic signal (% cell death) [2]: increased the sensitivity of T and B-cell lines to the CD95-mediated apoptotic signal

C1CCC[C@H]2CCCN3CC[C@@H](CCCCCC[C@@H]4CCCN5CC[C@@H](CC1)O[C@@H]45)O[C@@H]23 [xestospongin C]
FADD binding to CD95 ([1]; IP3-R antagonist, CD95 stimulation): significantly promoted FADD binding to CD95; also recorded: significant increase in FADD binding to CD95

Clc1ccc(C(c2ccc(Cl)cc2)n2cc[n+](CC(OCc3ccc(Cl)cc3Cl)c3ccc(Cl)cc3Cl)c2)cc1 (stereo not shown) [calmidazolium]
effect on CD95-mediated apoptotic signal ([2]; calmodulin antagonist or CaMKII inhibitory peptide): did not alter the CD95-mediated apoptotic signal

C[C@H](CCC(=O)O)C[C@H](C)C[C@H](C)C(=O)/C=C(\O)[C@H](C)C[C@H](C)C/C=C/[C@@H](C)[C@@H](O)[C@@H](C)[C@@H](O)C[C@@H]1CC[C@@](C)([C@H]2CC[C@@](C)([C@@H](C)O)O2)O1 [ionomycine]
DISC formation / FADD recruitment upon CD95 stimulation ([1]; H9, Jurkat, activated PBTs, non-cytotoxic concentrations, vs untreated cells): prevented the recruitment of FADD to CD95 and the DISC formation; also recorded: absence of FADD recruitment and DISC formation
formation of the DISC macro-complex ([1]; H9 cells, BAPTA-AM 1-10 μM or ionomycine 1 μM pre-incubation, then anti-Fas APO1-3 1 μg/ml 15 min 37° C., vs untreated cells): interfered with the formation of the DISC complex
FADD binding and activation of caspase-8 ([1]; H9 cells, ionomycine 1 μM, anti-Fas APO1-3): decreased the FADD binding and the activation of caspase-8

B1: CD95L: soluble CD95 ligand (Fas ligand), gp190-CD95L generated by Legembre et al. (protein, UniProt P48023 103-281, looked up)
extracellular domain: QLFHLQKELAELRESTSQMHTASSLEKQIGHPSPPPEKKELRKVAHLTGKSNSRSMPLEWEDTYGIVLLSGVKYKKGGLVINETGLYFVYSKVYFRGQSCNNLPLSHKVYMRNSKYPQDLVMMEGKMMSYCTTGQMWARSSYLGAVFNLTSADHLYVNVSELSLVNFEESQTFFGLYKL
modifications: extracellular domain gp190 fusion
intracellular calcium peak upon CD95L ([4]; H9 and Jurkat, rapid and transient, basal level 100 to 150 nM): up to 700 nM
calcium response to CD95L ([4]; Jurkat CD95-Q257K vs parental cell line): the calcium response remained unaltered
increase in [Ca2+]i upon CD95L ([4]; cells devoid of FADD, caspase-8 or caspase-8 and -10): did not display any modification of the increase in [Ca^2+]i

B2: TRAIL: soluble recombinant human TRAIL (TNF-related Apoptosis-Inducing Ligand), binds DR4 or DR5 (protein, UniProt P50591 39-281, looked up)
extracellular domain: TNELKQMQDKYSKSGIACFLKEDDSYWDPNDEESMNSPCWQVKWQLRQLVRKMILRTSEETISTVQEKQQNISPLVRERGPQRVAAHITGTRGRSNTLSSPNSKNEKALGRKINSWESSRSGHSFLSNLHLRNGELVIHEKGFYYIYSQTYFRFQEEIKENTKNDKQMVQYIYKYTSYPDPILLMKSARNSCWSKDAEYGLYSIYQGGIFELKENDRIFVSVTNEHLIDMDHEASFFGAFLVG
modifications: extracellular domain
induction of cell death via DR4/DR5 with calcium chelation [3]: potentiated by calcium chelation

— patent US20120034210A1, “COMPOSITIONS FOR POTENTIATING APOPOSIS SIGNALS IN TUMOUR CELLS” (INSTITUT BERGONIE, priority 2008, published 2012)
